Earlier results as cited in article PMC9516332 (Frontiers in Oncology, 2022).
Where two headings read alike, the source gives them in different places.

Legend:
Conditions in all cases: cited from earlier work
[1] = molecular target: panel of 255 wild-type kinases (Homo sapiens, UniProt P19525)
[2] = molecular target: panel of 255 wild-type kinases (Homo sapiens, UniProt P06241)
[3] = molecular target: T1, panel of 255 wild-type kinases (Homo sapiens, UniProt O14757)
T1 sequence (O14757 1-476): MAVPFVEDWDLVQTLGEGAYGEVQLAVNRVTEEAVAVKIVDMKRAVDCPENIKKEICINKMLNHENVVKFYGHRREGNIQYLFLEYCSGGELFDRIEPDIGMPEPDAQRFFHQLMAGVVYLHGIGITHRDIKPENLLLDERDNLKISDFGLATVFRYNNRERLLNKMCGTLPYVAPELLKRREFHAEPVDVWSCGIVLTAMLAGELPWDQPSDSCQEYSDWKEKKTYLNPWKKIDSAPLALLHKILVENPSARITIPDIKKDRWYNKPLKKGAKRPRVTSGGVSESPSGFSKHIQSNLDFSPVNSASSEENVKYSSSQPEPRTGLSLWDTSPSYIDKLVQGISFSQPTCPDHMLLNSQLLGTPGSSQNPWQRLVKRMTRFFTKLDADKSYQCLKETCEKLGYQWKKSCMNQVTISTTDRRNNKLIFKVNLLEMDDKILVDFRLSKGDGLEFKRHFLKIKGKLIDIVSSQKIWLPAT

[4] = molecular target: panel of 255 wild-type kinases (Homo sapiens, UniProt Q8IY84)
[5] = molecular target: T2, panel of 255 wild-type kinases (Homo sapiens, UniProt Q16566)
T2 sequence (Q16566 1-473): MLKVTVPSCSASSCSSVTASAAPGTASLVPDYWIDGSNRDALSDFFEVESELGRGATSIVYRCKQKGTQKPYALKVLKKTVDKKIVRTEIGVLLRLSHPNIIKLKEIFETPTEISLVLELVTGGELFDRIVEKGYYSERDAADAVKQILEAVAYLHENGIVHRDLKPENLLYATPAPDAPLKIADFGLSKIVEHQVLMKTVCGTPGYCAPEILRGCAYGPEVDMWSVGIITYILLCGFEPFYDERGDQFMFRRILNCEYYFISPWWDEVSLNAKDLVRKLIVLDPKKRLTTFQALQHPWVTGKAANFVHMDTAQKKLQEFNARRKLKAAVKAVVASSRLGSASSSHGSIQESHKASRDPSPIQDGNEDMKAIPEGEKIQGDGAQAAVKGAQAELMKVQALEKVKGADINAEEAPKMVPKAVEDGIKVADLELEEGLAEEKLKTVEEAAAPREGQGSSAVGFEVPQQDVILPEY

[6] = molecular target: T3, panel of 255 wild-type kinases (Homo sapiens, UniProt Q8IW41)
T3 sequence (Q8IW41 1-473): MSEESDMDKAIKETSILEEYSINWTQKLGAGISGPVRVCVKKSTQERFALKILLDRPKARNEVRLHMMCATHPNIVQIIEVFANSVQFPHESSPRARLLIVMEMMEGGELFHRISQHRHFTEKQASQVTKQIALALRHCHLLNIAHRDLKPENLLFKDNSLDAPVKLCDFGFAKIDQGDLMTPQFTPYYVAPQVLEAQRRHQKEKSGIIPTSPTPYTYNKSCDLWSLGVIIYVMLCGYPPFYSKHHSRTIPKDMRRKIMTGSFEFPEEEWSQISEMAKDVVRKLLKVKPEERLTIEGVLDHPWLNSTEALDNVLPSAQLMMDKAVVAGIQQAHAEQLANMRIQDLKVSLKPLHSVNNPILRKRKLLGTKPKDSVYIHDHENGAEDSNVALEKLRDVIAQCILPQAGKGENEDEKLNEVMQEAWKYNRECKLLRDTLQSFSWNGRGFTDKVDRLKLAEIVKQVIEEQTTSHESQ

[7] = molecular target: panel of 255 wild-type kinases (Homo sapiens, UniProt P22694)
[8] = molecular target: panel of 255 wild-type kinases (Homo sapiens, UniProt P50613)
[9] = kinase PKR, 1 µmol/L single concentration, ref DOI: 10.1158/1535-7163.MCT-18-0877
[10] = kinase FYN [isoform a], 1 µmol/L single concentration, ref DOI: 10.1158/1535-7163.MCT-18-0877
[11] = CHK1 kinase assay, 1 µmol/L single concentration, ref DOI: 10.1158/1535-7163.MCT-18-0877
[12] = NIM1K, 1 µmol/L single concentration, ref DOI: 10.1158/1535-7163.MCT-18-0877
[13] = CaMK4 kinase assay, 1 µmol/L single concentration, ref DOI: 10.1158/1535-7163.MCT-18-0877
[14] = MAPKAPK5, 1 µmol/L single concentration, ref DOI: 10.1158/1535-7163.MCT-18-0877
[15] = kinase PKACβ, 1 µmol/L single concentration, ref DOI: 10.1158/1535-7163.MCT-18-0877
[16] = CDK7/CycH/MAT1 kinase assay, 1 µmol/L single concentration, ref DOI: 10.1158/1535-7163.MCT-18-0877
[17] = kinase PKR, 1 µmol/L single concentration, ref DOI: 10.1371/journal.pone.0092146
[18] = kinase FYN [isoform a], 1 µmol/L single concentration, ref DOI: 10.1371/journal.pone.0092146
[19] = CHK1 kinase assay, 1 µmol/L single concentration, ref DOI: 10.1371/journal.pone.0092146
[20] = MAPKAPK5, 1 µmol/L single concentration, ref DOI: 10.1371/journal.pone.0092146
[21] = kinase PKACβ, 1 µmol/L single concentration, ref DOI: 10.1371/journal.pone.0092146
[22] = CDK7/CycH/MAT1 kinase assay, 1 µmol/L single concentration, ref DOI: 10.1371/journal.pone.0092146
[23] = CaMK4 kinase assay, 1 µmol/L single concentration, ref DOI: 10.1371/journal.pone.0092146

Row | SMILES | %-inhibition at 1 µmol/L, PKR [1, 9] | %-inhibition at 1 µmol/L, FYN [isoform a] [2, 10] | %-inhibition CHK1 [3, 11] | %-inhibition, NIM1K [4, 12] | %-inhibition CaMK4 [5, 13] | %-inhibition, MAPKAPK5 [6, 14] | %-inhibition at 1 µmol/L, PKACβ [7, 15] | %-inhibition CDK7/CycH/MAT1 [8, 16] | also measured
1 | CC#CC(=O)N1CCC[C@H]1c1nc(-c2ccc(C(=O)Nc3ccccn3)cc2)c2c(N)nccn12 [acalabrutinib] | 7% | 6% | -7% | -7% | -8.42% | -1.87% | -13% | 5% | 
2 | CCc1cc2c(cc1N1CCC(N3CCOCC3)CC1)C(C)(C)c1[nH]c3cc(C#N)ccc3c1C2=O [alectinib] | 5.33% | 15% | 0.288% | -2.13% | -4% | -2.38% | 2% | -12% | 
3 | COc1cc(N2CCC(N3CCN(C)CC3)CC2)ccc1Nc1ncc(Cl)c(Nc2ccccc2P(C)(C)=O)n1 [brigatinib] |  |  |  |  |  |  |  |  | %-inhibition at 1 µmol/L, PKR [1]: 14%; %-inhibition at 1 µmol/L, FYN [isoform a] [2]: 69%; %-inhibition CHK1 [3]: 96%; %-inhibition, NIM1K [4]: 3%; %-inhibition CaMK4 [5]: 13%; %-inhibition, MAPKAPK5 [6]: 3.41%; %-inhibition at 1 µmol/L, PKACβ [7]: 9%; %-inhibition CDK7/CycH/MAT1 [8]: 55%
4 | Cc1cc(Nc2ncc(Cl)c(Nc3ccccc3S(=O)(=O)C(C)C)n2)c(OC(C)C)cc1C1CCNCC1 [ceritinib] | -1% | 4% | 1.32% | -1.37% | 30% | -2.68% | -11% | 45% | 
5 | O=C(c1ccc(F)c(F)c1Nc1ccc(I)cc1F)N1CC(O)([C@@H]2CCCCN2)C1 [cobimetinib] | 0.867% | 0.258% | 9% | -3.67% | 2% | -1% | -6.51% | 6% | 
6 | C[C@@H](Oc1cc(-c2cnn(C3CCNCC3)c2)cnc1N)c1c(Cl)ccc(F)c1Cl [crizotinib] |  |  |  |  |  |  |  |  | %-inhibition at 1 µmol/L, PKR [1, 17]: 6%; %-inhibition at 1 µmol/L, FYN [isoform a] [2, 18]: 42%; %-inhibition CHK1 [3, 19]: 10%; %-inhibition, MAPKAPK5 [6, 20]: -3.19%; %-inhibition at 1 µmol/L, PKACβ [7, 21]: -2.3%; %-inhibition CDK7/CycH/MAT1 [8, 22]: 58%
7 | CC(C)(C)c1nc(-c2cccc(NS(=O)(=O)c3c(F)cccc3F)c2F)c(-c2ccnc(N)n2)s1 [dabrafenib] |  |  |  |  |  |  |  |  | %-inhibition CaMK4 [5, 23]: 78%
8 | C=CC(=O)N1CCC[C@@H](n2nc(-c3ccc(Oc4ccccc4)cc3)c3c(N)ncnc32)C1 [ibrutinib] | 5.63% | 93% | 10% | -2.33% | 3% | -2.44% | -9% | 5% | 
9 | CO[C@@H]1[C@H](N(C)C(=O)c2ccccc2)C[C@H]2O[C@]1(C)n1c3ccccc3c3c4c(c5c6ccccc6n2c5c31)C(=O)NC4 [midostaurin] | 32% | 78% | 68% | 1.15% | 3.79% | -2% | 91% | 10% | 
10 | C=CC(=O)Nc1cc(Nc2nccc(-c3cn(C)c4ccccc34)n2)c(OC)cc1N(C)CCN(C)C [osimertinib] | 6% | 0.721% | 11% | -10% | 2.5% | 0.814% | -6% | 8.57% | 
11 | CC(=O)Nc1cccc(-n2c(=O)n(C3CC3)c(=O)c3c(Nc4ccc(I)cc4F)n(C)c(=O)c(C)c32)c1 [trametinib] |  |  |  |  |  |  |  |  | %-inhibition at 1 µmol/L, PKR [1, 17]: 1.13%; %-inhibition at 1 µmol/L, FYN [isoform a] [2, 18]: 9%; %-inhibition CHK1 [3, 19]: -0.719%; %-inhibition CaMK4 [5, 23]: -5.45%; %-inhibition, MAPKAPK5 [6, 20]: -2.22%; %-inhibition at 1 µmol/L, PKACβ [7, 21]: -5%; %-inhibition CDK7/CycH/MAT1 [8, 22]: -6%
12 | CCCS(=O)(=O)Nc1ccc(F)c(C(=O)c2c[nH]c3ncc(-c4ccc(Cl)cc4)cc23)c1F [vemurafenib] |  |  |  |  |  |  |  |  | %-inhibition at 1 µmol/L, PKR [1, 17]: -0.765%; %-inhibition at 1 µmol/L, FYN [isoform a] [2, 18]: 81%; %-inhibition CHK1 [3, 19]: 4%; %-inhibition CaMK4 [5, 23]: -2.38%; %-inhibition, MAPKAPK5 [6, 20]: 12%; %-inhibition at 1 µmol/L, PKACβ [7, 21]: 2.66%; %-inhibition CDK7/CycH/MAT1 [8, 22]: 0.137%
